Source: US8809618B2, “Transgenic mouse for screening and for studies of the pharmacodynamics and pharmacokinetics of ligands acting on the oestrogen receptor and its intracellular receptors, and method for the preparation thereof” (T.O.P. (Transgenic Operative Products) S.R.L., priority 2000, dated 2014)
“Also recorded” adds a separate entry of the source.

Legend:
oestrogen receptors [1] = test: Agonistic/antagonistic action of ER ligands: luciferase activity in tissues of line 2 ERE-luciferase transgenic mice; type: in vivo, mouse; conditions: line 2 mice; for effect on E2-dependent activation of luciferase expression in vivo: 250 μg/kg one hour before 50 μg/kg E2
Experimental: To verify the expression of the transgene in the different tissues and its inducibility by oestrogens, 4 independent experiments were carried out on 8 female individuals of each line (4 heterozygotic and 4 homozygotic). For each experiment, two female individuals were ovariectomised. With the aim of reducing the oestrogens present in the bloodstream of the ovariectomised animals below the detection limit, there was a wait of two weeks before the induction experiment was carried out; the individuals were then subjected to subcutaneous (s.c.) injection of mineral oil with or without 50 μg/kg of dissolved 17-β oestradiol; 16 hours after the treatment, the individuals were sacrificed and the following tissues were dissected out of them: uterus, liver, spleen, lung, heart, kidney, hypothalamus and brain. The protein extracts were obtained by disintegration of the tissue with a homogenizer in the presence of a phosphate lysis buffer consisting of 0.1 M KH2PO4, 0.1 M K2HPO4, 1 mM DTT, 4 mM EGTA and 4 mM EDTA at pH 7.8. The suspension was frozen and thawed three times, and centrifuged for 30 minutes at 13,000 g; the supernatant was collected and equal quantities of protein, measured by the colorimetric method of Bradford, were subjected to enzymatic testing to reveal the activity of the enzyme luciferase. The method for detection of the activity of the reporter was carried out with a kit by the procedure recommended by the producer (Sigma), mixing ca. 20 μg of protein extract with the luciferin substrate in the presence of 0.5 mM ATP and 30 mM DTT and measuring the […] emitted using a luminometer (Lumat BL 9500, Berthold). With reference to FIGS. 5 to 7 of the attached drawings, individuals were subcutaneously injected (s.c.) with 50 μg/Kg 17β-estradiol (E2) or with vehicle (vegetable oil) and sacrificed at 24 hours. Luciferase enzymatic activity was evaluated and plotted in the graph. The arbitrary units are obtained considering the luciferase activity in the uterus of control individuals=100.
By subcutaneous injection of the substance in the presence or in the absence of 17-β oestradiol it is in fact possible to compare the distribution and the intensity of expression of the luciferase gene in the various tissues and to compare it with the control or with the injection of 17-β oestradiol alone. The effect of in vivo administration of two known ER antagonists was investigated in line 2 of transgenic mice. […] Luciferase is expressed as fold induction obtained as the ratio between luciferase activity in ligands treated/control mice.

[2] = tested on: ER reporter in primary bone marrow cells; test: Luciferase expression in primary bone marrow cells from transgenic mice; type: cell-based, mouse; conditions: 16 hours; for luciferase accumulation in the presence of 1 nM E2: 100 nM ligand plus 1 nM E2; for luciferase accumulation, ligand alone: E2 0.01-10 nM, ICI and T 100 nM, Prog and Dex 10 nM
Experimental: Two millions of bone marrow cells were suspended in phenol red-free RPMI 1640 with 10% stripped serum. […] Bars represent the average.+−.s.e.m. of 5 individual experiments each done in triplicate. *(P<0.01 as compared to the control), **(P<0.005 as compared to the control), ° (P<0.05 as compared to the T-treated); P were calculated with ANOVA followed by Scheffe test. […] As a control, we also tested progesterone and dexamethasone (10 nM).

oestrogen receptors [3] = test: Xenooestrogen activity: luciferase activity in liver and brain of transgenic mice injected s.c. with DDT; type: in vivo, mouse; conditions: s.c. 5000 μg/ml
Experimental: (§1) To verify the expression of the transgene in the different tissues and its inducibility by oestrogens, 4 independent experiments were carried out on 8 female individuals of each line (4 heterozygotic and 4 homozygotic). For each experiment, two female individuals were ovariectomised. […] The suspension was frozen and thawed three times, and centrifuged for 30 minutes at 13,000 g; the supernatant was collected and equal quantities of protein, measured by the colorimetric method of Bradford, were subjected to enzymatic testing to reveal the activity of the enzyme luciferase. The method for detection of the activity of the reporter was carried out with a kit by the procedure recommended by the producer (Sigma), mixing ca. 20 μg of protein extract with the luciferin substrate in the presence of 0.5 mM ATP and 30 mM DTT and measuring the […] emitted using a luminometer (Lumat BL 9500, Berthold). […] Luciferase enzymatic activity was evaluated and plotted in the graph. […]

oestrogen receptor = test: Time course of luciferase activity in bone and liver of transgenic mice after E2; type: in vivo, mouse; conditions: s.c. 50 μg/kg, sacrificed after 3, 6 or 16 hours
oestrogen receptors [4] = test: Tissue distribution of E2-dependent luciferase induction in ovariectomised female transgenic mice; type: in vivo, mouse; conditions: 26 tissues, ovariectomised 2-month old females, s.c., 16 hours
Experimental: as §1
The pharmacodynamics of any compound acting via intracellular receptors can also be correctly predicted by the transgenic model of the invention. As an illustrative example, […] luciferase activity was measured in 26 different tissues from 2-month old female mice which had been ovariectomised 2 weeks prior to the experiment. […]

| Molecule | effect on E2-dependent activation of luciferase expression in vivo (oestrogen receptors [1]) | luciferase accumulation in the presence of 1 nM E2 [2] | luciferase accumulation, ligand alone [2] | other results |
| --- | --- | --- | --- | --- |
| 4-hydroxytamoxifen | blockade | higher luciferase accumulation, yet the level reached was still lower than with E2 alone | significant increase in luciferase levels even though lower than E2 at the same concentration | agonist activity on luciferase expression in vivo (oestrogen receptors [1]; 250 μg/Kg alone, liver and brain): partial agonist activity; effect on E2-dependent activation of luciferase expression in vivo (oestrogen receptors [1]; listed as tamoxifen): inhibits the E2-dependent activation of luciferase expression |
| Clc1ccc(C(c2ccc(Cl)cc2)C(Cl)(Cl)Cl)cc1 [DDT] | – | – | – | persistence of luciferase induction (oestrogen receptors [3]): 72 h; time of maximal induction of luciferase activity (oestrogen receptors [3]; sacrificed at 3-72 hours, vs vehicle): 24 h |
| C[C@]12CC[C@@H]3c4ccc(O)cc4CC[C@H]3[C@@H]1CC[C@@H]2O [E2, 17β-estradiol] | – | – | dose-dependent increase | time of maximal luciferase accumulation (oestrogen receptor): 6 h; luciferase enzyme content in tissues compared to controls (oestrogen receptors [4]): induced an increase in the enzyme content compared to controls in oestrogen target organs |
| C[C@]12CC[C@@H]3c4ccc(O)cc4C[C@@H](CCCCCCCCC[S+]([O-])CCCC(F)(F)C(F)(F)F)[C@H]3[C@@H]1CC[C@@H]2O (some centres unmarked) [ICI 182,780] | blockade; also recorded: inhibits the E2-dependent activation of luciferase expression | blocked | did not sort [sic] any effect | – |
| CC(=O)[C@H]1CC[C@H]2[C@@H]3CCC4=CC(=O)CC[C@]4(C)[C@H]3CC[C@]12C [progesterone] | – | – | did not have any effect | – |
